Experimental data: patent US5077292A, “(2-imidazolin-2-ylamino) tetrahydroquinoxalines and methods for using same” (priority 1989, dated 1991)

Assays:
[1] = system: Alpha 3 Adrenergic Receptors; test: Rabbit Saphenous Vein: Alpha 3 Adrenergic Receptors; type: cell-based, albino rabbit; settings: rabbit saphenous vein rings, 37° C., field stimulated; n = number of test runs
Method: (§1) The tetrahydroquinoxalines produced in Examples 1 to 3 were tested for activity using the following in vitro methods.
Rabbit Saphenous Vein: Alpha 3 Adrenergic Receptors
Thoracic aorta and saphenous vein specimens were obtained from albino rabbits that were killed by CO2 inhalation. The aorta and saphenous vein were each cut into 3 mm rings. Tissues were placed in Krebs-Hensleit solution of the following composition (millimolar): NaCl 119; KCl 4.7; MgSO4 1.5, KH2 PO4 1.2; CaCl2 2.5; NaHCO3 25 and glucose 11.0. The solution also contained cocaine (0.1 millimolar) to block neuronal uptake and EDTA (30 micromolar) and ascorbic acid (5 micromolar) to prevent oxidation of the tetrahydroquinoxaline being tested. Tissues were hung in 10 ml organ baths and tension was measured via Grass FT03 force-displacement transducers. Resting tension was 1 g and 2 g for the saphenous vein and aorta, respectively. The solution was gassed with 95% O2 and 5% CO2 and maintained at 37° C. Tissues were allowed to equilibrate for 2 hours before stimulation and the cumulative addition of the tetrahydroquinoxaline being treated was started. Tissue stimulation was performed as with the rabbit vas deferens, described above. The contractions of the tissue were recorded isometrically as for the rabbit vas deferens assay. […]

intraocular pressure = test: effect on intraocular pressure, topical unilateral administration to rabbit eye; type: in vivo, New Zealand white rabbit; settings: 0.1% (W/V); for Difference In Intraocular Pressure, Initial Effect On Treated Eye / Difference In Intraocular Pressure, Maximum Effect on Treated Eye / Difference In Intraocular Pressure, Maximum Effect On Untreated Eye: single 50 micro liter drop, N.S. = not statistically significant; for Difference In Intraocular Pressure, Maximum Effect On Untreated Eye: untreated (contralateral) eye; for effect on intraocular pressure in the treated eye (in words): treated rabbit eye
Method: The three (3) tetrahydroquinoxaline derivatives produced in accordance with Examples 1 to 3 were tested to determine what effect, if any, these materials have on intraocular pressure.
Each of these materials was dissolved in distilled water at a concentration of 0.1% (W/V). Each of these solutions was administered topically and unilaterally to one eye of a drug-naive, unanesthetized New Zealand white rabbit in a single 50 micro liter drop. The contralateral eye received an equal volume of saline prior to determining the intraocular pressure after the mixture was administered. Also, approximately 10 micro liters of 0.5% (W/V) proparacaine (topical anesthetic) was applied to the corneas of each of the rabbits before determining intraocular pressure. As a control test, six (6) other drug-naive, unanesthetized New Zealand white rabbits were treated and tested as described above except that no tetrahydroquinoxaline derivative was included in the solutions administered to the eyes.
The intraocular pressure was determined in both eyes of each rabbit before and after the solutions were administered. Such intraocular pressure determinations were made in the conventional manner using conventional equipment.

[2] = system: Alpha 1 Adrenergic Receptors; test: Rabbit Aorta: Alpha 1 Adrenergic Receptors; type: cell-based, albino rabbit; settings: rabbit aorta rings, 37° C., field stimulated; n = number of test runs
Method: as §1
Rabbit Aorta: Alpha 1 Adrenergic Receptors
Thoracic aorta and saphenous vein specimens were obtained from albino rabbits that were killed by CO2 inhalation. The aorta and saphenous vein were each cut into 3 mm rings. Tissues were placed in Krebs-Hensleit solution of the following composition (millimolar): NaCl 119; KCl 4.7; MgSO4 1.5, KH2 PO4 1.2; CaCl2 2.5; NaHCO3 25 and glucose 11.0. The solution also contained cocaine (0.1 millimolar) to block neuronal uptake and EDTA (30 micromolar) and ascorbic acid (5 micromolar) to prevent oxidation of the tetrahydroquinoxaline being tested. Tissues were hung in 10 ml organ baths and tension was measured via Grass FT03 force-displacement transducers. Resting tension was 1 g and 2 g for the saphenous vein and aorta, respectively. The solution was gassed with 95% O2 and 5% CO2 and maintained at 37° C. Tissues were allowed to equilibrate for 2 hours before stimulation and the cumulative addition of the tetrahydroquinoxaline being treated was started. Tissue stimulation was performed as with the rabbit vas deferens, described above. The contractions of the tissue were recorded isometrically as for the rabbit vas deferens assay. Cumulative concentration response curves were obtained and the EC50 valve developed for each tetrahydroquinoxaline tested in a manner similar to that for the rabbit vas deferens assay.

[3] = molecular target: T1, Alpha 2 Adrenergic Receptors (Oryctolagus cuniculus, UniProt Q5ZQK3); test: Rabbit Vas Deferens: Alpha 2 Adrenergic Receptors; type: cell-based, New Zealand white rabbit; settings: 35° C., field stimulated, 50% reduction in response height, n = number of test runs
T1 construct: from tissue; host or cells: New Zealand white rabbit vas deferens, prostatic end, field stimulated
T1 sequence (Q5ZQK3 1-451): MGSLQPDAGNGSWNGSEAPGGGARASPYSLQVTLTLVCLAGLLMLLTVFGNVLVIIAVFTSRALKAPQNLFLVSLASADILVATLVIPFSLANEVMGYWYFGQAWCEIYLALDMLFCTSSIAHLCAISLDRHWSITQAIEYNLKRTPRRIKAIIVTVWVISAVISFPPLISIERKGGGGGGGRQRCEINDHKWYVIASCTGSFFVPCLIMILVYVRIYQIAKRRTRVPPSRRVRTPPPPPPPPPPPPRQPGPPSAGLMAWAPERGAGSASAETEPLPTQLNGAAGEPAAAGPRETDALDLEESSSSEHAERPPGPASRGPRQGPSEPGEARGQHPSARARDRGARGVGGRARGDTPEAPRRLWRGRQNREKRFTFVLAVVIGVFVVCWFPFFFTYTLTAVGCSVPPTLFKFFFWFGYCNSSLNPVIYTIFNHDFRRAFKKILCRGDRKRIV
Method: as §1
Rabbit Vas Deferens: Alpha 2 Adrenergic Receptors
New Zealand white rabbits (2-3 kg) were killed by CO2 inhalation and the vasa deferentia removed. The prostatic ends of the vasa deferentia (2-3 cm lengths) were mounted between platinum ring electrodes in 9 ml organ baths and bathed in Krebs bicarbonate solution of the following composition (millimolar): NaCl 118.0; KCl 4.7; CaCl2 2.5; MgSO4 1.2; KH2 PO4 1.2; glucose 11.0; NaHCO3 25.0; which solution was maintained at 35° C. and bubbled with 95% O2 and 5% CO2. The initial tension of the vas deferens was 0.5 g. The tissues were left to equilibrate for 30 minutes before stimulation was started. Vasa were then field stimulated (0.1 Hz, 2 ms pulse width at 90 mA) using a square wave stimulator (WPI A310 Accupulser with A385 stimulus). […] Cumulative concentration-response curves were obtained for the tetrahydroquinoxaline being tested with a 4 minute contact time at each concentration. The reduction in response height was measured and expressed as a percentage of the height of the response before the addition of tetrahydroquinxoaline. Concentration response curves for each of tetrahydroquinoxalines were plotted. The effective concentration required for a 50% reduction in response height, expressed as EC50, were obtained from these curves and are set forth below.

| Compound | EC50 [1] | Difference In Intraocular Pressure, Initial Effect On Treated Eye (intraocular pressure) | Difference In Intraocular Pressure, Maximum Effect on Treated Eye (intraocular pressure) | Difference In Intraocular Pressure, Maximum Effect On Untreated Eye (intraocular pressure) | effect on intraocular pressure in the treated eye (in words) (intraocular pressure) | effect on intraocular pressure in the untreated eye (in words) (intraocular pressure; untreated rabbit eye) | EC50 [2] | EC50 [3] |
| --- | --- | --- | --- | --- | --- | --- | --- | --- |
| CC1CNc2c(ccc(NC3=NCCN3)c2Br)N1 (racemic) [Example 2, (±)2-Methyl-5-bromo-6-(2-imidazolin-2-ylamino)-1,2,3,4-tetrahydroquinoxaline] | 581 ± 29 nM | N.S. | -15.1 ± 3.3% | -8.6 ± 2.4% | effective to reduce intraocular pressure in the treated rabbit eye | reducing the intraocular pressure in the untreated rabbit eye | 6.75 ± 0.116 µM | 35.3 ± 3.9 nM |
| Brc1c(NC2=NCCN2)ccc2c1NCCN2 [drawing 5] | – | +10.7 ± 3.6% | -16.0 ± 3.3% | N.S. | – | – | – | – |
| CC1CNc2ccc(NC3=NCCN3)c(Br)c2N1 (racemic) [Example 3, (±) 3-Methyl-5-bromo-6-(2-imidazolin-2-ylamino)-1,2,3,4-tetrahydroquinoxaline] | – | N.S. | -12.5 ± 2.2% | N.S. | effective to reduce intraocular pressure in the treated rabbit eye | – | 1.06 ± 0.271 µM | 21.3 ± 3 nM |
